Experimental data taken from patent US10221139B2, “Inhibitors of histone demethylases” (Gilead Sciences, Inc., priority 2012, dated 2019).

Key:
Assay type in all cases: biochemical
GASC1 (KDM4C, JMJD2C) = molecular target: T1, GASC1 (KDM4C, JMJD2C) (Homo sapiens, UniProt Q9H3R0); assay: Histone lysine demethylase AlphaLISA assay, GASC1; conditions: substrate BK9M3
T1 construct: 1-349; host or cells: E. coli
T1 sequence (Q9H3R0 1-349): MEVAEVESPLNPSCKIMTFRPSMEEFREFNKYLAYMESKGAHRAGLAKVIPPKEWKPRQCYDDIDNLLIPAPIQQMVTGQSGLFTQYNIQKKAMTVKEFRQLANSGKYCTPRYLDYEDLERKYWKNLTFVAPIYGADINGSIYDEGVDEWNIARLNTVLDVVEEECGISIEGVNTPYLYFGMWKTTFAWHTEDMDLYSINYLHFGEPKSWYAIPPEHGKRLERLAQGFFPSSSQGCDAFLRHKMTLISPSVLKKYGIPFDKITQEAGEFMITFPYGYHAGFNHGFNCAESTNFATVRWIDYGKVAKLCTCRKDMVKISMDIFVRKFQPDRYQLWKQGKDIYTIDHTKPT
Summary of the method: (§1)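 Per-enzyme reaction conditions apply; each enzyme sees compound for 10 min ahead of substrate addition. Bead-based AlphaLISA detection at room temperature, protected from light, gives the IC50.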

JMJD3 (KDM6B) = molecular target: T2, JMJD3 (KDM6B) (Homo sapiens, UniProt O15054); assay: Histone lysine demethylase AlphaLISA assay, JMJD3; conditions: substrate BK27M3
T2 construct: 1043-end; purchased BPS; host or cells: Bac (baculovirus)
T2 sequence (O15054 1043-1682 isoform O15054-1 limits assumed): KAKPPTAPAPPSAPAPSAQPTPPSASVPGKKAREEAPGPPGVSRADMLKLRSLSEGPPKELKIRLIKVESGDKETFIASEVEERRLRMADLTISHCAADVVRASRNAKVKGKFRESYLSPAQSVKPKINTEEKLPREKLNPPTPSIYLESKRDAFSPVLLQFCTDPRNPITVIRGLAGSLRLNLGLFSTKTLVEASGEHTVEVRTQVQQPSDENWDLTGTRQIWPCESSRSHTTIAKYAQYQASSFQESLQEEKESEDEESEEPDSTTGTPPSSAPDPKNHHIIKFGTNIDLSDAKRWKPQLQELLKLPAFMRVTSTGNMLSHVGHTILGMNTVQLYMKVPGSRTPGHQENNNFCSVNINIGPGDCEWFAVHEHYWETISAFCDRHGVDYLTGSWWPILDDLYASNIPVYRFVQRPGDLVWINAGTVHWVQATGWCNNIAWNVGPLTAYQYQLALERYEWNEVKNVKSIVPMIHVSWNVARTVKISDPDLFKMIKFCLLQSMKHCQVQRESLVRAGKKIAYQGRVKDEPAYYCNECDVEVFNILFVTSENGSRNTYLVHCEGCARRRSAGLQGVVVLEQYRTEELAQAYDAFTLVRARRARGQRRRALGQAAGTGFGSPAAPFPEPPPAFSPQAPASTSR
Method: (§2) Example 2: Histone Lysine Demethylase AlphaLISA Assays for IC50 Value Determination
(§3) Assays are performed analogously to the protocol described by Perkin Elmer (Roy et al. Perkin Elmer Technical Note: AlphaLISA #12, April 2011).
(§4) Enzymes are dissolved in enzyme buffer and incubated for 10 min before 5 μL is added to 5 μL 3% DMSO solutions of compounds in enzyme buffer. Incubated for another 10 minutes, before 5 μL substrate solution is added and the reaction mixture is incubated at room temperature for the given period. 10 μL acceptor beads, suspended at given dilutions in Epigenetic Buffer (Perkin Elmer AL008) from stock, are added and the suspension is incubated 60 minutes in the dark at room temperature, before 10 μL suspension (at the given dilutions in Epigenetic Buffer) of streptavidin donor beads (Perkin Elmer 6760002) in Epigenetic Buffer is added. After incubation at room temperature in the dark the plates are read. Reaction conditions are seen in Table 2b.

JARID1C (KDM5C) = molecular target: T3, JARID1C (KDM5C) (Homo sapiens, UniProt P41229); assay: Histone lysine demethylase AlphaLISA assay, JARID1C; conditions: substrate H3K4M3B
T3 construct: 2-1560; purchased BPS; host or cells: Bac (baculovirus)
T3 sequence (P41229 2-1560): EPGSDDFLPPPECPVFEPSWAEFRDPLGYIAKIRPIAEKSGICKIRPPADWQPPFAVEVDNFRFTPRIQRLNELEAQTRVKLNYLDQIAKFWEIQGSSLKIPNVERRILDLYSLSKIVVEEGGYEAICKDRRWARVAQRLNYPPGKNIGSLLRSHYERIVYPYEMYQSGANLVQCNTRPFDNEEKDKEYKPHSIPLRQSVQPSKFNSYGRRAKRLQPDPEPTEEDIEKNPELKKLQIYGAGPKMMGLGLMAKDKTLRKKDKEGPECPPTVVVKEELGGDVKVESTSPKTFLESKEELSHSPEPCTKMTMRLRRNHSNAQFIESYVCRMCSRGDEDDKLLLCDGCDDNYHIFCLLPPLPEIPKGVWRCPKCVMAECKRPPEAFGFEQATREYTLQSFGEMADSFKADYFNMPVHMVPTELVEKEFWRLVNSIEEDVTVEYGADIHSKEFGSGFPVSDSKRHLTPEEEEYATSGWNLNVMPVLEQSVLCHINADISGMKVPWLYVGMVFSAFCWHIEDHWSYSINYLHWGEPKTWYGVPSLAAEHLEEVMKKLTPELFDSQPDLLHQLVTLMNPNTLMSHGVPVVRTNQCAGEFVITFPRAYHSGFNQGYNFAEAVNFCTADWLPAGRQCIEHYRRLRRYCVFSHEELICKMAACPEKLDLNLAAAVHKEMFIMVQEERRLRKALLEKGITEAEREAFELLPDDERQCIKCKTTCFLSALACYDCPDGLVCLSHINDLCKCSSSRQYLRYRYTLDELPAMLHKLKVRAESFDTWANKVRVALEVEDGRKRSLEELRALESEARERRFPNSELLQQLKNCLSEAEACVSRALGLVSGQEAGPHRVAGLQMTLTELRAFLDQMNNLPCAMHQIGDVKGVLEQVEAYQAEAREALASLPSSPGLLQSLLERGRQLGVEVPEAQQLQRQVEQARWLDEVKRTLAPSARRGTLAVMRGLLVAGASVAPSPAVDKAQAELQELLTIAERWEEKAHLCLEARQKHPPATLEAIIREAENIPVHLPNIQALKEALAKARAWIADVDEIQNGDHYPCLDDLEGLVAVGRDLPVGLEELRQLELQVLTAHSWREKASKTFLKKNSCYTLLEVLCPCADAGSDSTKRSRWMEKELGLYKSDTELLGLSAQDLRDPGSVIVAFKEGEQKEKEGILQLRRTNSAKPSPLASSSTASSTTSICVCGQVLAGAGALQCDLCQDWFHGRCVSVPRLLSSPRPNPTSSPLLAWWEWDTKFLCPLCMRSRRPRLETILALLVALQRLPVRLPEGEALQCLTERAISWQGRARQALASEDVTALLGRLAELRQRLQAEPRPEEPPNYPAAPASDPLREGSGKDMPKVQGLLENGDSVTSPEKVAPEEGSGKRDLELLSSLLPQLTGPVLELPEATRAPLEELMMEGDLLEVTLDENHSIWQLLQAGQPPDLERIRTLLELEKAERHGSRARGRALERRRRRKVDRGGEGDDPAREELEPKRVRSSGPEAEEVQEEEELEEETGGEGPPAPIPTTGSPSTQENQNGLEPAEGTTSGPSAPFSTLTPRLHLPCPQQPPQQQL
Method: as §2, §3, §4

JMJD2B (KDM4B) = molecular target: T4, JMJD2B (KDM4B) (Homo sapiens, UniProt O94953); assay: Histone lysine demethylase AlphaLISA assay, JMJD2B; conditions: substrate BK9M3, read-out: JMUD2B IC50
T4 construct: 2-500; purchased BPS; host or cells: Bac (baculovirus)
T4 sequence (O94953 2-500): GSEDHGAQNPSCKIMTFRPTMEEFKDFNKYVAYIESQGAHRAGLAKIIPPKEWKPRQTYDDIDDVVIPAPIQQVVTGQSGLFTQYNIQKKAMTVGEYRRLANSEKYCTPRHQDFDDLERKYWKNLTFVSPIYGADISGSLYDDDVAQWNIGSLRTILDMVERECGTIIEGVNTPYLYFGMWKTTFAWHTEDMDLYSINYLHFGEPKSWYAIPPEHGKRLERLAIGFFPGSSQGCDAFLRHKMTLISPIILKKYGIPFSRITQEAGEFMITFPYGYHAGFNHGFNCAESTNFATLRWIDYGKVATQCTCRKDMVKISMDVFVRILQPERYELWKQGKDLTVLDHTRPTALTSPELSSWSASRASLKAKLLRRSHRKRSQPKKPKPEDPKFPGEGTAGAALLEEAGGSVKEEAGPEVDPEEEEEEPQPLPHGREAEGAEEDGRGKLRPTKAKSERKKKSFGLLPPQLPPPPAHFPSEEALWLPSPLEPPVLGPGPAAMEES
Method: as §2, §3, §4

JMJD2A (KDM4A) = molecular target: T5, JMJD2A (KDM4A) (Homo sapiens, UniProt O75164); assay: Histone lysine demethylase AlphaLISA assay, JMJD2A; conditions: substrate BK9M3
T5 construct: 1-350; purchased BPS, Bioscience, US; host or cells: E. coli
T5 sequence (O75164 1-350): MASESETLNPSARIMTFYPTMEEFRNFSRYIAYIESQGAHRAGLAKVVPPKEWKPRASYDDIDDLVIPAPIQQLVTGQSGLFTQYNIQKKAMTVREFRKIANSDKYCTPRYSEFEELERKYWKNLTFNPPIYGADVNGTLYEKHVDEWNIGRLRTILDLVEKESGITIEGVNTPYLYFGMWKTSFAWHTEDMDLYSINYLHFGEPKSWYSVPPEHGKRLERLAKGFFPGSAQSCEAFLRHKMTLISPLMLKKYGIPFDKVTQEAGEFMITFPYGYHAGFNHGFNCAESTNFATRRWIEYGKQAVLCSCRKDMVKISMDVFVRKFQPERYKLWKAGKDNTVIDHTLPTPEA
Method: as §2, §3, §4

PLU1 (KDM5B) = molecular target: T6, PLU1 (KDM5B) (Homo sapiens, UniProt Q9UGL1); assay: Histone lysine demethylase AlphaLISA assay, PLU1; conditions: substrate H3K4M3B
T6 construct: 1-809; host or cells: E. coli
T6 sequence (Q9UGL1 1-809): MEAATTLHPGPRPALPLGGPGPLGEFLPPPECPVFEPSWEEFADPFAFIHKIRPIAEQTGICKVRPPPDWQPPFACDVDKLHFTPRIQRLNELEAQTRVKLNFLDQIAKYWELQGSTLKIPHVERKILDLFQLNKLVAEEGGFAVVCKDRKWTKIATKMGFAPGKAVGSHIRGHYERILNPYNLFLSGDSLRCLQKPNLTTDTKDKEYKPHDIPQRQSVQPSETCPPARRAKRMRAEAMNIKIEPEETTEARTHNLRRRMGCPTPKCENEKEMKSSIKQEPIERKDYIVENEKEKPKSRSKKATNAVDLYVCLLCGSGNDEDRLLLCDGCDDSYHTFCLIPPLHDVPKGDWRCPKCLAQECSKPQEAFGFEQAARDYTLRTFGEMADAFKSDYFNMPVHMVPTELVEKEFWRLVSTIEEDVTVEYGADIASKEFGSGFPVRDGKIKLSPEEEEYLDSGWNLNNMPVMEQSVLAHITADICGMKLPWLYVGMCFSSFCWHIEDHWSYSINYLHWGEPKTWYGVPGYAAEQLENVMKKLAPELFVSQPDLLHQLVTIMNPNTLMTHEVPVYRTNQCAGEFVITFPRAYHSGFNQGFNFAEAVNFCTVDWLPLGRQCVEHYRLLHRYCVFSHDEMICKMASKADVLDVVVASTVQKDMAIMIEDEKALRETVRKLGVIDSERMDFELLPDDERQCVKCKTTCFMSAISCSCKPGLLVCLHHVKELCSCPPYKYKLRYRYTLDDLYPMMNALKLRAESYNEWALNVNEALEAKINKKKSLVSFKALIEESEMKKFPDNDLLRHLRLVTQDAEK
Summary of the method: as §1

| IC50 (GASC1 (KDM4C, JMJD2C)) | IC50 (JMJD3 (KDM6B)) | IC50 (JARID1C (KDM5C)) | IC50 (JMJD2B (KDM4B)) | IC50 (JMJD2A (KDM4A)) | IC50 (PLU1 (KDM5B)) | Molecule |
| --- | --- | --- | --- | --- | --- | --- |
| < 100 nM | ≥ 1000 nM | < 100 nM | < 100 nM | < 100 nM | < 100 nM | O=C(O)c1ccnc(CNCC(=O)N2CCCC2)c1 [#13, 2-({[2-oxo-2-(pyrrolidin-1-yl)ethyl]amino}methyl)pyridine-4-carboxylic acid] |
| < 100 nM | ≥ 1000 nM | < 100 nM | < 100 nM | – | < 100 nM | CCCCN(C)C(=O)CNCc1cc(C(=O)O)ccn1 [#14, 2-[({[butyl(methyl)carbamoyl]methyl}amino)methyl]pyridine-4-carboxylic acid] |
| < 100 nM | – | < 100 nM | < 100 nM | < 100 nM | < 100 nM | COc1ccccc1CN1CCC(NC(=O)CNCc2cc(C(=O)O)ccn2)CC1 [#29, 2-({[({1-[(2-methoxyphenyl)methyl]piperidin-4-yl}carbamoyl)methyl]amino}methyl)pyridine-4-carboxylic acid] |
| < 100 nM | ≥ 1000 nM | < 100 nM | < 100 nM | < 100 nM | < 100 nM | CCCCN1CCCC1CCNCc1cc(C(=O)O)ccn1 (stereo not drawn) [#34, 2-({[2-(1-butylpyrrolidin-2-yl)ethyl]amino}methyl)pyridine-4-carboxylic acid] |
| < 100 nM | 100 to 1000 nM | < 100 nM | < 100 nM | < 100 nM | < 100 nM | CC(C)=CCCC(C)CCN1CCC(NC(=O)CNCc2cc(C(=O)O)ccn2)C1 (stereo not drawn) [#35, 2-{[({[1-(3,7-dimethyloct-6-en-1-yl)pyrrolidin-3-yl]carbamoyl}methyl)amino]methyl}pyridine-4-carboxylic acid] |
| < 100 nM | ≥ 1000 nM | < 100 nM | < 100 nM | < 100 nM | < 100 nM | CCN(CCN(C)C)C(=O)CNCc1cc(C(=O)O)ccn1 [#49, 2-{[({[2-(dimethylamino)ethyl](ethyl)carbamoyl}methyl)amino]methyl}pyridine-4-carboxylic acid] |

| Molecule | IC50 (GASC1 (KDM4C, JMJD2C)) | IC50 (JMJD3 (KDM6B)) | IC50 (JARID1C (KDM5C)) | IC50 (JMJD2B (KDM4B)) | IC50 (JMJD2A (KDM4A)) | IC50 (PLU1 (KDM5B)) |
| --- | --- | --- | --- | --- | --- | --- |
| 2-({[(1R)-2-hydroxy-1-{methyl[3-(1-methyl-1H-imidazol-2-yl)propyl]carbamoyl}ethyl]amino}methyl)pyridine-4-carboxylic acid [#37] | < 100 nM | ≥ 1000 nM | 100 to 1000 nM | < 100 nM | < 100 nM | – |
